From US20150119363A1, “METHODS OF TREATING BACTERIAL INFECTIONS” (Rampex Pharmaceuticals, Inc., priority 2012, published 2015)

Experiments:
Test in all cases: Dose titration biapenem potentiation assay (MPC1)
Settings in all cases: biapenem 1 μg/mL
[1] = test system: ECL1004 NMC-A; type: cell-based, Enterobacter cloacae
Method: (§1) The potency and spectrum of β-lactamase inhibitors is also determined by assessing their biapenem potentiation activity in a dose titration potentiation assay using strains expressing serine carbapemenases (such as KPC). The potentiation effect is observed as the ability of BLI compounds to inhibit growth in the presence of sub-inhibitory concentration of biapenem. […] Biapenem is present in the test medium at 1 μg/mL. Compounds tested at the highest concentration of 40 μg/mL. […] Table 5 summarizes BLI potency of biapenem potentiation (MPC1). Biapenem MIC for each strain is also shown.

[2] = test system: KP1004 KPC-2; type: cell-based, Klebsiella pneumoniae
Method: as §1

[3] = test system: KP1008 KPC-2; type: cell-based, Klebsiella pneumoniae
Method: as §1

[4] = test system: EC1007 KPC-3; type: cell-based, Escherichia coli
Method: as §1

Row | Compound | BPM MPC1 ECL1004 NMC-A [1] | BPM MPC1 KP1004 KPC-2 [2] | BPM MPC1 KP1008 KPC-2 [3] | BPM MPC1 EC1007 KPC-3 [4]
1 | C[C@]1(Cn2ccnn2)[C@H](C(=O)N[C@H]2CC[C@@H](CC(=O)O)OB2O)N2C(=O)C[C@H]2S1(=O)=O [Compound 59, 2-[(3R,6S)-2-hydroxy-3-[(2S,3S,5R)-3-methyl-4,4,7-trioxo-3-(1H-1,2,3-triazol-1-ylmethyl)-4λ^6-thia-1-azabicyclo[3.2.0]heptane-2-amido]-1,2-oxaborinan-6-yl]acetic acid] | X (X = MPC1 of less than 1 μg/mL.) | Y (Y = MPC1 of 1 μg/mL to 5 μg/mL.) | X (X = MPC1 of less than 1 μg/mL.) | X (X = MPC1 of less than 1 μg/mL.)
2 | O=C(O)C[C@@H]1CC[C@H](NC(=O)C[C@H]2CCCCN2)B(O)O1 [Compound 52, 2-((3R,6S)-2-hydroxy-3-(2-((R)-piperidin-2-yl)acetamido)-1,2-oxaborinan-6-yl)acetic acid] | Y (Y = MPC1 of 1 μg/mL to 5 μg/mL.) | X (X = MPC1 of less than 1 μg/mL.) | X (X = MPC1 of less than 1 μg/mL.) | X (X = MPC1 of less than 1 μg/mL.)
3 | O=C(O)CC1CCC[C@H](NC(=O)Cc2cccs2)B(O)O1 (stereo partly drawn) [Compound 63, 2-((3R)-2-hydroxy-3-(2-(thiophen-2-yl)acetamido)-1,2-oxaborepan-7-yl)acetic acid] | Y (Y = MPC1 of 1 μg/mL to 5 μg/mL.) | Y (Y = MPC1 of 1 μg/mL to 5 μg/mL.) | X (X = MPC1 of less than 1 μg/mL.) | Y (Y = MPC1 of 1 μg/mL to 5 μg/mL.)
4 | CCOC(=O)C[C@@H]1CC[C@H](NC(=O)Cc2cccs2)B(O)O1 [Compound 65, ethyl 2-((3R,6S)-2-hydroxy-3-(2-(thiophen-2-yl)acetamido)-1,2-oxaborinan-6-yl)acetate] | Z (Z = MPC1 of greater than 5 μg/mL.) | Y (Y = MPC1 of 1 μg/mL to 5 μg/mL.) | X (X = MPC1 of less than 1 μg/mL.) | Y (Y = MPC1 of 1 μg/mL to 5 μg/mL.)
5 | N[C@H]1CC[C@@H](CC(=O)N[C@H]2CC[C@@H](CC(=O)O)OB2O)CC1 [Compound 50, 2-((3R,6S)-3-(2-(4-aminocyclohexyl)acetamido)-2-hydroxy-1,2-oxaborinan-6-yl)acetic acid] | X (X = MPC1 of less than 1 μg/mL.) | X (X = MPC1 of less than 1 μg/mL.) | X (X = MPC1 of less than 1 μg/mL.) | X (X = MPC1 of less than 1 μg/mL.)
6 | O=C(O)C[C@@H]1CC[C@H](NC(=O)Cc2cc(F)cc(F)c2)B(O)O1 [Compound 66, 2-((3R,6S)-3-(2-(3,5-difluorophenyl)acetamido)-2-hydroxy-1,2-oxaborinan-6-yl)acetic acid] | X (X = MPC1 of less than 1 μg/mL.) | X (X = MPC1 of less than 1 μg/mL.) | X (X = MPC1 of less than 1 μg/mL.) | X (X = MPC1 of less than 1 μg/mL.)
7 | O=C(O)C[C@@H]1CC[C@H](NC(=O)Cc2ccncc2)B(O)O1 [Compound 49, 2-((3R,6S)-2-hydroxy-3-(2-(pyridin-4-yl)acetamido)-1,2-oxaborinan-6-yl)acetic acid] | X (X = MPC1 of less than 1 μg/mL.) | X (X = MPC1 of less than 1 μg/mL.) | X (X = MPC1 of less than 1 μg/mL.) | X (X = MPC1 of less than 1 μg/mL.)
8 | O=C(O)C[C@@H]1CC[C@H](NC(=O)c2ccccc2)B(O)O1 [Compound 37, 2-((3R,6S)-3-benzamido-2-hydroxy-1,2-oxaborinan-6-yl)acetic acid] | X (X = MPC1 of less than 1 μg/mL.) | X (X = MPC1 of less than 1 μg/mL.) | X (X = MPC1 of less than 1 μg/mL.) | X (X = MPC1 of less than 1 μg/mL.)
9 | O=C(O)CC1C=CC[C@H](NC(=O)Cc2cccs2)B(O)O1 (stereo partly drawn) [Compound 64, 2-((3R)-2-hydroxy-3-(2-(thiophen-2-yl)acetamido)-2,3,4,7-tetrahydro-1,2-oxaborepin-7-yl)acetic acid] | X (X = MPC1 of less than 1 μg/mL.) | Y (Y = MPC1 of 1 μg/mL to 5 μg/mL.) | X (X = MPC1 of less than 1 μg/mL.) | X (X = MPC1 of less than 1 μg/mL.)
10 | O=C(O)C[C@@H]1CC[C@H](NC(=O)[C@H]2Cc3ccccc3CN2)B(O)O1 [Compound 46, 2-((3R,6S)-2-hydroxy-3-((R)-1,2,3,4-tetrahydroisoquinoline-3-carboxamido)-1,2-oxaborinan-6-yl)acetic acid] | X (X = MPC1 of less than 1 μg/mL.) | X (X = MPC1 of less than 1 μg/mL.) | X (X = MPC1 of less than 1 μg/mL.) | X (X = MPC1 of less than 1 μg/mL.)
11 | N[C@H](C(=O)N[C@H]1CC[C@@H](CC(=O)O)OB1O)c1ccccc1 [Compound 33, 2-((3R,6S)-3-((S)-2-amino-2-phenylacetamido)-2-hydroxy-1,2-oxaborinan-6-yl)acetic acid] | X (X = MPC1 of less than 1 μg/mL.) | X (X = MPC1 of less than 1 μg/mL.) | X (X = MPC1 of less than 1 μg/mL.) | X (X = MPC1 of less than 1 μg/mL.)
12 | O=C(O)C[C@@H]1CC[C@H](NC(=O)Cn2ccnc2-c2ccccc2)B(O)O1 [Compound 54, 2-((3R,6S)-2-hydroxy-3-(2-(2-phenyl-1H-imidazol-1-yl)acetamido)-1,2-oxaborinan-6-yl)acetic acid] | X (X = MPC1 of less than 1 μg/mL.) | X (X = MPC1 of less than 1 μg/mL.) | X (X = MPC1 of less than 1 μg/mL.) | X (X = MPC1 of less than 1 μg/mL.)
13 | N=C(N)NCCC[C@@H](N)C(=O)N[C@H]1CC[C@@H](CC(=O)O)OB1O [Compound 47] | Z (Z = MPC1 of greater than 5 μg/mL.) | Y (Y = MPC1 of 1 μg/mL to 5 μg/mL.) | X (X = MPC1 of less than 1 μg/mL.) | X (X = MPC1 of less than 1 μg/mL.)
14 | NCCC(=O)N[C@H]1CC[C@@H](CC(=O)O)OB1O [Compound 34, 2-((3R,6S)-3-(3-aminopropanamido)-2-hydroxy-1,2-oxaborinan-6-yl)acetic acid] | Y (Y = MPC1 of 1 μg/mL to 5 μg/mL.) | X (X = MPC1 of less than 1 μg/mL.) | X (X = MPC1 of less than 1 μg/mL.) | X (X = MPC1 of less than 1 μg/mL.)
15 | O=C(O)C[C@@H]1CC[C@H](NC(=O)Cc2ccccn2)B(O)O1 [Compound 57, 2-((3R,6S)-2-hydroxy-3-(2-(pyridin-2-yl)acetamido)-1,2-oxaborinan-6-yl)acetic acid] | X (X = MPC1 of less than 1 μg/mL.) | X (X = MPC1 of less than 1 μg/mL.) | X (X = MPC1 of less than 1 μg/mL.) | X (X = MPC1 of less than 1 μg/mL.)
16 | Cc1nc2ccccc2n1CCC(=O)N[C@H]1CC[C@@H](CC(=O)O)OB1O [Compound 55] | X (X = MPC1 of less than 1 μg/mL.) | X (X = MPC1 of less than 1 μg/mL.) | X (X = MPC1 of less than 1 μg/mL.) | X (X = MPC1 of less than 1 μg/mL.)
17 | NC1(CC(=O)N[C@H]2CC[C@@H](CC(=O)O)OB2O)CCCCC1 [Compound 51, 2-((3R,6S)-3-(2-(1-aminocyclohexyl)acetamido)-2-hydroxy-1,2-oxaborinan-6-yl)acetic acid] | Y (Y = MPC1 of 1 μg/mL to 5 μg/mL.) | X (X = MPC1 of less than 1 μg/mL.) | X (X = MPC1 of less than 1 μg/mL.) | X (X = MPC1 of less than 1 μg/mL.)
18 | O=C(O)C[C@@H]1CC[C@H](NC(=O)c2ccc(Cn3cnnn3)cc2)B(O)O1 [Compound 56, 2-((3R,6S)-3-(4-((1H-tetrazol-1-yl)methyl)benzamido)-2-hydroxy-1,2-oxaborinan-6-yl)acetic acid] | X (X = MPC1 of less than 1 μg/mL.) | X (X = MPC1 of less than 1 μg/mL.) | X (X = MPC1 of less than 1 μg/mL.) | X (X = MPC1 of less than 1 μg/mL.)
19 | Nc1nc(CC(=O)N[C@H]2CC[C@@H](CC(=O)O)OB2O)cs1 [Compound 39, 2-((3R,6S)-3-(2-(2-aminothiazol-4-yl)acetamido)-2-hydroxy-1,2-oxaborinan-6-yl)acetic acid] | X (X = MPC1 of less than 1 μg/mL.) | X (X = MPC1 of less than 1 μg/mL.) | X (X = MPC1 of less than 1 μg/mL.) | X (X = MPC1 of less than 1 μg/mL.)
20 | O=C(O)C[C@@H]1CC[C@H](NC(=O)c2cn(C3CC3)c3cc(N4CCNCC4)c(F)cc3c2=O)B(O)O1 [Compound 58, 2-((3R,6S)-3-(1-cyclopropyl-6-fluoro-4-oxo-7-(piperazin-1-yl)-1,4-dihydroquinoline-3-carboxamido)-2-hydroxy-1,2-oxaborinan-6-yl)acetic acid] | Z (Z = MPC1 of greater than 5 μg/mL.) | Z (Z = MPC1 of greater than 5 μg/mL.) | Z (Z = MPC1 of greater than 5 μg/mL.) | 
21 | Nc1cc(CC(=O)N[C@H]2CC[C@@H](CC(=O)O)OB2O)ccn1 [Compound 61, 2-((3R,6S)-3-(2-(2-aminopyridin-4-yl)acetamido)-2-hydroxy-1,2-oxaborinan-6-yl)acetic acid] | X (X = MPC1 of less than 1 μg/mL.) | X (X = MPC1 of less than 1 μg/mL.) | X (X = MPC1 of less than 1 μg/mL.) | 
